Assay results published in patent US5684151A, “1-arylsulphonyl, arylcarbonyl and 1-arylphosphonyl-3-phenyl-1,4,5,6-tetrahydropyridazines” (priority 1995, dated 1997).
Where two headings read alike, the source gives them in different places.

Columns and labels:
[1] = system: mouse (MC3T3-E1) and human (TE-85) osteoblast-line cells; assay type: cell-based
How it was run: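 MC3T3-E1 or TE-85 cells were plated overnight in DMEM/25 mM HEPES/10% FBS and then preincubated 24 h in 0.1% FBS. Compounds were added for 20 h, followed by a 4 h pulse of 0.4 μCi ^3H-thymidine. Incorporated radioactivity served as the proliferation index, expressed as % of control (control = 100%).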

rabbit endometrium [2] = assay: In vivo progestational test (Clauberg Test); design: species or system rabbit (immature New Zealand White female); key: Active in Clauberg Assay; Active in McGinty Assay; conditions: oral or parenteral, daily for five days
Method: Progestational activity was also measured in vivo by the abiity to stimulate the rabbit endometrium after either oral or parenteral administration.
[…]. Starting on the 7th day, the rabbits were given the test material daily for five days. The rabbits were sacrificed approximately 24 hours after the last administration, and the uteri were excised, trimmed and weighed. Portions of both uterine horns were fixed in 10% neutral formalin, sectioned at 6μ and stained with hematoxylin and eosin. Progestational activity was assessed as described above for the McGinty Test.

[3] = target: T1, progestin receptor from rabbit uterus (Oryctolagus cuniculus, UniProt P06186); assay: Progestin receptor binding (3H-R5020 displacement); conditions: rabbit uterine cytosol, 4° C., 18 h, read-out: IC50: Binding affinity for the progestin receptor from rabbit uterus
T1 construct: Cytosolic progestin receptor were obtained by mixing rabbit uterine tissue with a Tris buffer; from tissue; host or cells: rabbit uterus cytosol
T1 sequence (P06186 whole entry): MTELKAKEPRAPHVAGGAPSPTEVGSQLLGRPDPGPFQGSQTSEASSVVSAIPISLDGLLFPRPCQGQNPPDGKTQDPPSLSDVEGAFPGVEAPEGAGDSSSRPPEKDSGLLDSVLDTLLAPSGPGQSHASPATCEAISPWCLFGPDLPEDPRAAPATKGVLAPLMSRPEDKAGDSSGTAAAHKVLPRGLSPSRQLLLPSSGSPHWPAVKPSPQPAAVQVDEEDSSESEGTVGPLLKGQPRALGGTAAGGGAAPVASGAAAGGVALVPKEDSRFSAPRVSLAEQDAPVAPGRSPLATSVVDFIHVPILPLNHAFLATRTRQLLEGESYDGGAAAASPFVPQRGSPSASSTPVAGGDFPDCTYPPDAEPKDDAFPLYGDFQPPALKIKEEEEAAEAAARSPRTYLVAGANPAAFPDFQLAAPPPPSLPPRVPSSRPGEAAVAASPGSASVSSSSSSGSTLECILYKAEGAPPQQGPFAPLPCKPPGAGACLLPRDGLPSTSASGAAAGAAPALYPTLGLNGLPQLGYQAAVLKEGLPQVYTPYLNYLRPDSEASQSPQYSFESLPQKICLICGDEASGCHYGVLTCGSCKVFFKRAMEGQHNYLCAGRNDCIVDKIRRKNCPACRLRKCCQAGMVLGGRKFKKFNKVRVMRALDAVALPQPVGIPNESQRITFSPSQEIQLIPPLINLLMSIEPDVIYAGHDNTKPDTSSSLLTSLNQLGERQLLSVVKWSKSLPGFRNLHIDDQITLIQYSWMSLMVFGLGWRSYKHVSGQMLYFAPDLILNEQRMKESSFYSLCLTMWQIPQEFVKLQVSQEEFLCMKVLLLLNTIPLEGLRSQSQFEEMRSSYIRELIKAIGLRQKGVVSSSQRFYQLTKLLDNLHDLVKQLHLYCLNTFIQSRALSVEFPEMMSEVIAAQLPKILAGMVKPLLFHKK
How it was run: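 Rabbit uterine cytosol in Tris buffer pH 7.4 with EDTA, DTT and molybdate was incubated with 3H-R5020 and test compound (5% DMSO final) at 4 °C for about 18 h. Bound ligand was separated with dextran-coated charcoal and counted by scintillation; IC50 is 50% radioligand displacement, with nonspecific binding defined by excess unlabelled ligand.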

[4] = system: Human T47D breast carcinoma cells; assay: Ex vivo progestational test (T47D proliferation); assay type: cell-based; conditions: SC200, 3H-thymidine incorporation
Method: The progestational activity of the compounds was accessed by their ability to stimulate proliferation of human breast carcinoma cells. Proliferation was measured as the ability to stimulate ^3 H-thymidine incorporation into these cells in vitro. Human T47D breast carcinoma cells (American Type Tissue Collection #133-HTB) were maintained in media consisting or RPMI 1640 supplemented with 10% fetal bovine serum, 10 ug/ml insulin, 10 U/ml pennicillin, 100 ug/ml streptomycin, and 2 mM L-glutamine. Monolayer cell cultures were trypsinized and washed in assay media consisting of phenol red-free RPMI 1640 supplemented with 5% charcoal-stripped, fetal bovine serum, and the other ingredients listed above. Cells were then plated in a 96-well plate. After a 48-hour incubation period at 37° C., the conditioned media was removed and replaced with fresh media containing test compounds in DMSO (0.1% DMSO final concentration). The cell cultures were incubated for 18 to 20 hours at 37° C. ^3 H-thymidine was then added to each well and the cell cultures were incubated at 37° C. for an additional 4 hours. Labelling was stopped by addition of un labelled thymidine. The cultures were washed twice, trypsinized and then harvested onto a filter mat. Incorporated ^3 -H-thymidine was measured by liquid scintillation counting. Data was expressed as a percent stimulation above control level which was set at 100%. An SC200 value was calculated as the concentration of test material needed to stimulate ^3 H-thymidine incorporation 200% of control.
Aspects of the application of the procedure used are described in the following: C. Christensen, D. Gunter, D. Saunders and V. Malviya, Gynecol. Oncol., 28, 25 (1987); J. Puzas, R. Drivdahl, G. Howard and D. Baylink, Proc. Soc. Exp. Biol. Med., 166, 113 (1981); and I. Keydar, L. Chen, S. Karby, F. Weiss, J. Delarea, M. Raduy, S. Chaitcik and H. Brenner, Eur. J. Cancer, 15, 659 (1979)

rabbit endometrium [5] = assay: In vivo progestational test (McGinty Test); design: species or system rabbit (immature New Zealand White female); key: Active in Clauberg Assay; Active in McGinty Assay; conditions: injection into uterine horn, 72 hours
Method: Progestational activity was measured in vivo by the ability to stimulate the rabbit endometrium after injection into the uterine horn.
Immature New Zealand White female rabbits were injected subcutaneously for 6 days with 5.0 μg of 17β-estradiol per day. On the 7th day the rabbits were anesthetized, the abdomen opened and a uterine horn exposed. Two ligatures were placed around a segment of the uterus 3-4 cm long, leaving the major blood vessels outside the ties.
The upper ligature was tied tightly, and the lower one was left loose. A needle attached to a syringe was injected in the uterus below the second ligature and up into the area between the two ligatures. As the test material was injected, the ligature was tightened and held tight so that the needle was withdrawn without the loss of fluid. The second ligature was secured and the abdomen closed.
The rabbits were sacrificed approximately 72 hours after the injection. The uteri were removed, fixed in 10% buffered formalin, sectioned at 6μ, and stained with hematoxylin and eosin. The evaluation for endometrial proliferation was made according to a McPhail Index. Each slide was graded for each rabbit on a 0 (no response)-4 (maximum response) scale.

mature female rabbits = assay: Additional test to determine bone growth activity (bone density by dual X-ray densitometry); assay type: in vivo, rabbit; conditions: oral once daily, 12 weeks, vs vehicle treated control
Method: Test compounds were orally administered once daily to mature female rabbits for 12 weeks. Bone density was measured by dual X-ray densitometry and results were expressed as % base line bone mineral content.

| SMILES | Osteoblast Cell Proliferation, 3H-thymidine incorporation vs control (100%) ([1]; 10^-6) [%] | Osteoblast Cell Proliferation, 3H-thymidine incorporation vs control (100%) ([1]; 10^-7) [%] | Osteoblast Cell Proliferation, 3H-thymidine incorporation vs control (100%) ([1]; 10^-8) [%] | Osteoblast Cell Proliferation, 3H-thymidine incorporation vs control (100%) ([1]; 10^-9) [%] | Osteoblast Cell Proliferation, 3H-thymidine incorporation vs control (100%) ([1]; 10^-10) [%] | In-vivo: Active in Clauberg Assay (rabbit endometrium [2]) | IC50 [3] [nM] | T47D: Concentration to elicit a 200% increase in T47D Human breast cell proliferation [4] | In-vivo: Active in McGinty Assay (rabbit endometrium [5]) | bone mineral content (mature female rabbits) |
| --- | --- | --- | --- | --- | --- | --- | --- | --- | --- | --- |
| O=S(=O)(c1ccc(I)cc1)N1CCCC(c2ccc(Cl)c(Cl)c2)=N1 [Compound 40, 3-(3,4-dichlorophenyl)-1-(4-iodobenzenesulphonyl)-1,4,5,6-tetrahydropyridazine] | 78 | 90 | 71 | 58 | 53 | C | 1.18 | 26 | M |  |
| O=S(=O)(c1ccc(Br)cc1)N1CCCC(c2ccc(Cl)c(Cl)c2)=N1 [Compound 39, 3-(3,4-dichlorophenyl)-1-(4-bromobenzenesulphonyl)-1,4,5,6-tetrahydropyridazine] | 92 | 94 | 84 | 115 | 99 | C | 0.7 | 100 | M |  |
| O=S(=O)(c1ccc(I)cc1)N1CCCC(c2ccc(Cl)c(C(F)(F)F)c2)=N1 [Compound 1, 3-(4-Chloro-3-trifluoromethylphenyl)-1-(4-iodobenzenesulfonyl)-1,4,5,6-tetrahydropyridazine] |  |  |  |  |  | C | 1.33 | 46 | M |  |
| O=C(c1ccc(Cl)c(Cl)c1)N1CCCC(c2ccccc2)=N1 [Compound 185, 1-(3,4-dichlorobenzoyl)-3-phenyl-1,4,5,6-tetrahydropyridazine] | 98 | 136 | 147 | 131 | 128 |  | 3560 | 10000 |  | significant increase in bone mineral content |
| O=S(=O)(c1ccc2ccccc2c1)N1CCCC(c2ccc(Cl)c(Cl)c2)=N1 [Compound 42, 3-(3,4-dichlorophenyl)-1-(2-naphthylenesulfonyl)-1,4,5,6-tetrahydropyridazine] | 135 | 144 | 155 | 146 | 166 |  | 0.97 | 321 | M |  |
| O=S(=O)(c1ccc(Cl)cc1)N1CCCC(c2ccc(Cl)c(C(F)(F)F)c2)=N1 [Compound 77] |  |  |  |  |  | C | 1.47 | 286 | M |  |
| O=C(c1ccc(Cl)c(Cl)c1)N1CCCC(c2cccs2)=N1 [Compound 280, 3-(2-Thienyl)-1-(3,4-dichlorobenzoyl)-1,4,5,6-tetrahydropyridazine] |  |  |  |  |  |  |  |  |  | significant increase in bone mineral content |
| O=S(=O)(c1ccc(Cl)cc1)N1CCCC(c2ccc(Cl)c(Cl)c2)=N1 [Compound 12, 3-(3,4-dichlorophenyl)-1-(4-chlorobenzenesulphonyl)-1,4,5,6-tetrahydropyridazine] | 118 | 115 | 114 | 131 | 135 | C | 1 | 153 | M |  |
| O=S(=O)(c1ccc2c(c1)CCCC2)N1CCCC(c2ccc(Cl)c(C(F)(F)F)c2)=N1 [Compound 78] |  |  |  |  |  | C | 2.44 | 10000 | M |  |
